Experimental data reported in patent EP0674651B1, “SUBSTITUTED 6-AZAANDROSTENONES” (priority 1992, dated 1994).

Legend:
[1] = molecular target: T1, human type 2 5α-reductase (Homo sapiens, UniProt P31213); assay: 5α-reductase in vitro inhibitory activity, human type 2
T1 sequence (P31213 1-254): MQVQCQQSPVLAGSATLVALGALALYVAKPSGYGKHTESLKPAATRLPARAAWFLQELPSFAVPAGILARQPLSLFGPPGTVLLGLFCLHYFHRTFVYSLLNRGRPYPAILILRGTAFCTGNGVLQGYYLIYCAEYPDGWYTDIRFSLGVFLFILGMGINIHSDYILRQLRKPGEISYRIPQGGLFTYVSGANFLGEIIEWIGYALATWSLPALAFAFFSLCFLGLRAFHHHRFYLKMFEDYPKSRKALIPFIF
Description: (§1) Microsomes were prepared by homogenization of the tissue or cells, followed by differential centrifugation of the homogenate. […] Corresponding incubations were carried out with no test compound as a control study.
The percentage of conversion of testosterone to DHT in the presence of test compounds compared to the corresponding conversion in the control study was estimated using high pressure liquid chromatography (HPLC) with radiochemical detection.

[2] = molecular target: T2, human type 1 5α-reductase (Homo sapiens, UniProt P18405); assay: 5α-reductase in vitro inhibitory activity, human type 1
T2 sequence (P18405 1-259): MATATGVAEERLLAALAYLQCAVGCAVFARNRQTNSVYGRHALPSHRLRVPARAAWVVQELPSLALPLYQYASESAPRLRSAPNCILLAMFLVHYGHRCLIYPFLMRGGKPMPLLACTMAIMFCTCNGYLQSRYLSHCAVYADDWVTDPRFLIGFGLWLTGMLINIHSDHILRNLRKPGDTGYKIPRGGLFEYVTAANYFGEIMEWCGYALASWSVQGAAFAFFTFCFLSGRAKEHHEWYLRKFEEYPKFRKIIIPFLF
Description: as §1
For type 2 IC50 measurements, assay components except testosterone were preincubated for 20 minutes at pH 6.0, and following the addition of 8nM testosterone the assays were allowed to proceed for 20-40 minutes. The percentage of conversion of testosterone to DHT in the presence of test compounds compared to the corresponding conversion in the control study was estimated using high pressure liquid chromatography (HPLC) with radiochemical detection.

IC50 [1] [nM]	IC50 [2] [nM]	SMILES
< 10	< 10	CC(C)(C)c1ccc(-c2ccccc2)cc1NC(=O)[C@H]1CC[C@H]2[C@@H]3CNC4=CC(=O)CC[C@]4(C)[C@H]3CC[C@]12C [Compound 88, 17β-N-(2-t-Butyl-5-phenyl)phenyl-carbamoyl-6-azaandrost-4-en-3-one]
< 10	> 100	CC(C)(C)c1ccc(C(NC(=O)[C@H]2CC[C@H]3[C@@H]4CNC5=CC(=O)CC[C@]5(C)[C@H]4CC[C@]23C)c2ccccc2)cc1 (stereo partly drawn) [Compound 67, 17β-N-(1 -Phenyl-1-(4-t-butyl)phenyl)methyl-carbamoyl-6-azaandrost-4-en-3-one]
< 10	< 10	C[C@]12CC[C@H]3[C@@H](CNC4=CC(=O)CC[C@@]43C)[C@@H]1CC[C@@H]2C(=O)NC1(c2ccc(Cl)cc2)CCCC1 [Compound 64, 17β-N-1-(4-Chlorophenyl)cyclopentyl-carbamoyl-6-azaandrost-4-en-3-one]
< 10	10 to 100	CC(C)(C)c1ccc(NC(=O)[C@H]2CC[C@H]3[C@@H]4CNC5=CC(=O)CC[C@]5(C)[C@H]4CC[C@]23C)c(Br)c1 [Compound 71, 17β-N-(2-Bromo-4-t-butyl)phenyl-carbamoyl-6-azaandrost-4-en-3-one]
< 10	< 10	C[C@]12CC[C@H]3[C@@H](CNC4=C(Cl)C(=O)CC[C@@]43C)[C@@H]1CC[C@@H]2C(=O)Nc1cc(C(F)(F)F)ccc1C(F)(F)F [Compound 126, 17β-N-(2,5-bis(Trifluoromethyl))phenyl-carbamoyl-6-azaandrost-4-chloro-4-en-3-one]
< 10	< 10	CC(C)(C)c1ccc(Cl)cc1NC(=O)[C@H]1CC[C@H]2[C@@H]3CNC4=CC(=O)CC[C@]4(C)[C@H]3CC[C@]12C [Compound 75, 17β-N-(5-Chloro-2-t-butyl)phenyl-carbamoyl-6-azaandrost-4-en-3-one]
< 10	10 to 100	CCc1cccc(CC)c1NC(=O)[C@H]1CC[C@H]2[C@@H]3CNC4=CC(=O)CC[C@]4(C)[C@H]3CC[C@]12C [Compound 76, 17β-N-(2,6-Diethyl)phenyl-carbamoyl-6-azaandrost-4-en-3-one]
10 to 100	> 100	CC1(C)CC(NC(=O)[C@H]2CC[C@H]3[C@@H]4CNC5=CC(=O)CC[C@]5(C)[C@H]4CC[C@]23C)CC(C)(C)C1 [Compound 59, 17β-N-(3,5-Tetramethyl)cyclohexyl-carbamoyl-6-azaandrost-4-en-3-one]
< 10	10 to 100	CC(C)(C)c1ccc(NC(=O)[C@H]2CC[C@H]3[C@@H]4CNC5=CC(=O)CC[C@]5(C)[C@H]4CC[C@]23C)cc1 [Compound 108, 17β-N-(4-t-Butyl)phenyl-carbamoyl-6-azaandrost-4-en-3-one]
< 10	10 to 100	CCC(C)(C)c1ccc(Oc2ccccc2)c(NC(=O)[C@H]2CC[C@H]3[C@@H]4CNC5=CC(=O)CC[C@]5(C)[C@H]4CC[C@]23C)c1 [Compound 83, 17β-N-(2-(O-Phenyl)-5-(1,1-dimethyl)propyl)phenyl-carbamoyl-6-azaandrost-4-en-3-one]
< 10	< 10	C[C@]12CC[C@H]3[C@@H](CNC4=CC(=O)CC[C@@]43C)[C@@H]1CC[C@@H]2C(=O)NC1(c2ccc(Cl)cc2)CCCCC1 [Compound 146, 17β-N-1-(4-Chlorophenyl)cyclohexyl-carbamoyl-6-azaandrost-4-en-3-one]
< 10	< 10	CC(C)(C)c1ccc(C2(NC(=O)[C@H]3CC[C@H]4[C@@H]5CNC6=CC(=O)CC[C@]6(C)[C@H]5CC[C@]34C)CCCCC2)cc1 [Compound 122, 17β-N-1-(4-t-Butylphenyl)cyclohexyl-carbamoyl-6-azaandrost-4-en-3-one]
< 10	< 10	COc1ccc(C(C)(C)C)cc1NC(=O)[C@H]1CC[C@H]2[C@@H]3CNC4=CC(=O)CC[C@]4(C)[C@H]3CC[C@]12C [Compound 128, 17β-N-(2-Methoxy-5-t-butyl)phenyl-carbamoyl-6-azaandrost-4-en-3-one]
< 10	10 to 100	C[C@]12CC[C@H]3[C@@H](CNC4=CC(=O)CC[C@@]43C)[C@@H]1CC[C@@H]2C(=O)Nc1ccccc1C(=O)c1ccccc1 [Compound 123, 17β-N-(2-Benzoyl)phenyl-carbamoyl-6-azaandrost-4-en-3-one]
< 10	> 100	CC(NC(=O)[C@H]1CC[C@H]2[C@@H]3CNC4=CC(=O)CC[C@]4(C)[C@H]3CC[C@]12C)(c1ccc(Cl)cc1)c1ccc(Cl)cc1 [Compound 66, 17β-N-(1,1-Di-4-chlorophenyl)ethyl-carbamoyl-6-azaandrost-4-en-3-one]
< 10	10 to 100	CCOC(=O)c1ccc(NC(=O)[C@H]2CC[C@H]3[C@@H]4CNC5=CC(=O)CC[C@]5(C)[C@H]4CC[C@]23C)cc1 [Compound 134, 17β-N-(4-Carboethoxy)phenyl-carbamoyl-6-azaandrost-4-en-3-one]
< 10	10 to 100	Cc1ccc(Oc2ccc(C(F)(F)F)cc2NC(=O)[C@H]2CC[C@H]3[C@@H]4CNC5=CC(=O)CC[C@]5(C)[C@H]4CC[C@]23C)cc1 [Compound 79, 17β-N-(2-(O-4-Tolyl)-5-trifluoromethyl)phenyl-carbamoyl-6-azaandrost-4-en-3-one]
< 10	< 10	CC1=C2NC[C@H]3[C@@H]4CC[C@H](C(=O)Nc5cc(C(F)(F)F)ccc5C(F)(F)F)[C@@]4(C)CC[C@@H]3[C@@]2(C)CCC1=O [Compound 116, 17β-N-(2,5-bis(Trifluoromethyl))phenyl-carbamoyl-6-azaandrost-4-methyl-4-en-3-one]
10 to 100	> 100	CC(=O)NC[C@H]1CC[C@H]2[C@@H]3CNC4=CC(=O)CC[C@]4(C)[C@H]3CC[C@]12C [Compound 97, 17β-Aminomethyl-(acetamide)-6-azaandrost-4-en-3-one]
< 10	10 to 100	CC(C)(C)c1ccccc1NC(=O)[C@H]1CC[C@H]2[C@@H]3CNC4=CC(=O)CC[C@]4(C)[C@H]3CC[C@]12C [Compound 56, 17β-N-(2-t-Butyl)phenyl-carbamoyl-6-azaandrost-4-en-3-one]
< 10	< 10	CC(C)(C)c1cc(Br)ccc1NC(=O)[C@H]1CC[C@H]2[C@@H]3CNC4=CC(=O)CC[C@]4(C)[C@H]3CC[C@]12C [Compound 77, 17β-N-(4-Bromo-2-t-butyl)phenyl-carbamoyl-6-azaandrost-4-en-3-one]
< 10	10 to 100	CCc1ccc(Cl)c(CC)c1NC(=O)[C@H]1CC[C@H]2[C@@H]3CNC4=CC(=O)CC[C@]4(C)[C@H]3CC[C@]12C [Compound 55, 17β-N-(2,6-Diethyl-3-chloro)phenyl-carbamoyl-6-azaandrost-4-en-3-one]
< 10	< 10	CC(C)(C)c1ccc(C(F)(F)F)cc1NC(=O)[C@H]1CC[C@H]2[C@@H]3CNC4=CC(=O)CC[C@]4(C)[C@H]3CC[C@]12C [Compound 87, 17β-N-(2-t-Butyl-5-trifluoromethyl)phenyl-carbamoyl-6-azaandrost-4-en-3-one]
< 10	< 10	CC(C)(C)c1ccc(NC(=O)[C@H]2CC[C@H]3[C@@H]4CNC5=CC(=O)CC[C@]5(C)[C@H]4CC[C@]23C)c(C(F)(F)F)c1 [Compound 100, 17β-N-(4-t-Butyl-2-trifluoromethyl)phenyl-carbamoyl-6-azaandrost-4-en-3-one]
< 10	> 100	C[C@]12CC[C@H]3[C@@H](CNC4=CC(=O)CC[C@@]43C)[C@@H]1CC[C@@H]2C(=O)Nc1cccc(C#N)c1 [Compound 107, 17β-N-(3-Cyano)phenyl-carbamoyl-6-azaandrost-4-en-3-one]
< 10	10 to 100	CC1CCC(C(C)C)C(OC(=O)OC[C@H]2CC[C@H]3[C@@H]4CNC5=CC(=O)CC[C@]5(C)[C@H]4CC[C@]23C)C1 (stereo partly drawn) [Compound 89, 17β-Hydroxymethyl-(menthylcarbonate)-6-azaandrost-4-en-3-one]
< 10	< 10	C[C@]12CC[C@H]3[C@@H](CNC4=CC(=O)CC[C@@]43C)[C@@H]1CC[C@@H]2COC(=O)Oc1ccccc1 [Compound 90, 17β-Hydroxymethyl-(phenylcarbonate)-6-azaandrost-4-en-3-one]
< 10	> 100	CC(C)(C)NC(=O)c1ccc(C(F)(F)F)cc1NC(=O)[C@H]1CC[C@H]2[C@@H]3CNC4=CC(=O)CC[C@]4(C)[C@H]3CC[C@]12C [Compound 142, 17β-N-(2-t-Butylcarbamoyl-5-trifluoromethyl)phenyl-carbamoyl-6-azaandrost-4-en-3-one]
< 10	< 10	CC(C)(C)c1ccc(C2(NC(=O)[C@H]3CC[C@H]4[C@@H]5CNC6=C(Cl)C(=O)CC[C@]6(C)[C@H]5CC[C@]34C)CCCCC2)cc1 [Compound 139, 17β-N-1-(4-t-Butylphenyl)cyclohexyl-carbamoyl-6-azaandrost-4-chloro-4-en-3-one]
< 10	10 to 100	CCOc1ccc(OCC)c(NC(=O)[C@H]2CC[C@H]3[C@@H]4CNC5=CC(=O)CC[C@]5(C)[C@H]4CC[C@]23C)c1 [Compound 119, 17β-N-(2,5-Diethoxy)phenyl-carbamoyl-6-azaandrost-4-en-3-one]
